Entries after “also recorded” stand apart in the source; their conditions may differ. Where two headings read alike, the source gives them in different places.
Tests used:
[1] = molecular target: T1, human BChE (Homo sapiens, UniProt P06276); assay: biochemical; details: Ki ± standard error; 0.1, 0.2, 0.35 and 0.5 mM substrate ATCh; 25 °C, pH 7.4; read-out: Ki BChE
T1 construct: Plasma was removed and used as a source of BChE; from tissue; host or cells: human blood plasma from a healthy volunteer
T1 sequence (P06276 29-602): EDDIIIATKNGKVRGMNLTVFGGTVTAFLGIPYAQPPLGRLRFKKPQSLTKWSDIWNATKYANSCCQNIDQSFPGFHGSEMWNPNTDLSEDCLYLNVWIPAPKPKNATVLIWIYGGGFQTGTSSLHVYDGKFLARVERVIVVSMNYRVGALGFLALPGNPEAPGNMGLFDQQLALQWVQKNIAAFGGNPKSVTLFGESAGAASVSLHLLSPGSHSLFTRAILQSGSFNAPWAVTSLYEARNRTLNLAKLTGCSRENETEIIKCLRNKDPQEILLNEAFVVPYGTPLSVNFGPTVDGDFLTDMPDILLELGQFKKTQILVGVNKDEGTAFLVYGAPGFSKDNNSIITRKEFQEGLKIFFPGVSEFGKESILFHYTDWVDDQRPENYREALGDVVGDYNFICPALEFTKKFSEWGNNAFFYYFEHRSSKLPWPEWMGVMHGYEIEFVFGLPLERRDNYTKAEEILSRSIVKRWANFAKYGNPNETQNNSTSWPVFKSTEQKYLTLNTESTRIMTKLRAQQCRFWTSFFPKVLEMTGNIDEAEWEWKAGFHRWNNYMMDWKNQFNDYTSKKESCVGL
Text: (§1) Cholinesterase substrate acetylthiocholine (ATCh) and the thiol reagent 5,5′-dithiobis(2-nitrobenzoic acid) (DTNB) for the enzyme activity measurement were purchased from Sigma-Aldrich (St. Louis, MO, USA). The sources of human AChE and BChE were native erythrocytes and plasma, respectively, obtained from the blood of a healthy volunteer and in accordance with the approval of the Ethics Committee of the Institute for Medical Research and Occupational Health (approval number: 100-21/23-6). Erythrocytes and plasma were isolated from the whole blood and prepared according to a previously published procedure. Namely, venous blood was collected into a heparinized tube and centrifuged (at 4 °C, 20 min on 2500 rpm, Eppendorf centrifuge 5702R) to separate plasma from the erythrocytes. Plasma was removed and used as a source of BChE, while erythrocytes were washed twice with the 0.1 M sodium phosphate buffer, pH 7.4, in a volume corresponding to the initial volume of the whole blood. Both plasma and erythrocytes were frozen at −20 °C until use. Quinuclidine compounds were dissolved in dH2O as 10 or 100 mM; exceptionally, 3-hydroxyimino compounds with longer chains (C12−C16) were dissolved in DMSO as 100 mM solutions. Stock solutions were kept at 4 °C until use. Further dilutions were made in distilled water.
(§2) The reversible inhibition experiments followed a previously published procedure. Namely, the enzyme activity was measured in the presence of a wide range of quinuclidine compound concentrations and in the substrate range from 0.1 to 0.5 mM to confirm the type of compound binding. The activity was assayed following the Ellman’s procedure, with the modification in the wavelength used for detection of the TNB anion in the case of AChE activity measurement due to the interference of the hemoglobin, and according to Worek et al.. The assay was performed in 96-well plates on an Infinite M200PRO plate reader (Tecan Austria GmbH, Salzburg, Austria) at 25 °C. Each concentration was tested in triplicate or quadruplicate on each plate. The inhibition mixture contained 0.1 M sodium phosphate buffer, pH 7.4, enzyme (AChE or BChE), quinuclidine compound (0.2–400 μM final), DTNB (0.3 mM final), and ATCh (from 0.1 to 0.5 mM final) to start the reaction. The increase in absorbance was read at 436 nm for AChE and at 412 nm for BChE. The measured activity in the presence of compounds was corrected for the non-enzymatic hydrolysis of substrate ATCh, if detected. The reversible enzyme–quinuclidine complex dissociation constants (the inhibition constants) Ki were evaluated from the effect of the substrate concentration on the degree of inhibition according to the Hunter–Downs equation as described previously, taking into account only quinuclidine concentrations where 20–80% inhibition of the activity was observed.

[2] = system: SH-SY5Y cells; assay: Cell membrane integrity (LDH release) on SH-SY5Y; assay type: cell-based, human; details: 4 h exposure, 12.5–200 µM
Protocol: (§3) Human neuroblastoma SH-SY5Y (ECACC 94030304) and human hepatocyte carcinoma HepG2 (ECACC 85011430) were used to evaluate in vitro dose- and time-dependent different cell effects. The SH-SY5Y cell line was selected as it represents a well-established model for studying neuronal cells, while HepG2 hepatocytes represent a liver model as a major organ participating in the metabolism of diverse compounds [31, 61, 62]. SH-SY5Y cells were grown in DMEM F12 (Sigma-Aldrich, St. Louis, MO, USA) supplemented with 15% (v/v) fetal bovine serum (FBS), 2 mM glutamine, and 1% (v/v) non-essential amino acids (NEAA). HepG2 cells were grown in EMEM supplemented with 10% (v/v) FBS, 2 mM glutamine, and 1% (v/v) non-essential amino acids NEAA. All media and supplements were purchased from Sigma-Aldrich, Steinheim, Germany.
(§4) Cell membrane integrity was determined after 4 h exposure to derivatives 3–5 and 10–12 by measuring the release of the intracellular lactate dehydrogenase (LDH), and the procedure followed a previously described protocol using The CytoTox-ONE™ Homogeneous Membrane Integrity Assay (Promega, Madison, WI, USA). Triton X-100 at a final concentration of 0.18% (v/v) (stock of 9% in water; Sigma-Aldrich, Steinheim, Germany) was used as a positive control to determine the maximal LDH release. Data were taken from at least two independent experiments (each treatment performed in duplicate) and plotted as a percentage of LDH release compared to the determined maximal LDH release, according to the manufacturer’s calculation protocol.

[3] = molecular target: T2, human AChE (Homo sapiens, UniProt P22303); assay: Reversible inhibition of AChE (Ellman's procedure, Hunter–Downs evaluation); assay type: biochemical; details: for Ki: Ki ± standard error, 0.1, 0.2, 0.35 and 0.5 mM substrate ATCh, 25 °C, pH 7.4; for Ki (AChE)/Ki (BChE): selectivity ratio
T2 construct: The sources of human AChE and BChE were native erythrocytes and plasma, respectively; from tissue; host or cells: human erythrocytes from venous blood of a healthy volunteer
T2 sequence (P22303 32-617 isoform P22303-2 limits assumed): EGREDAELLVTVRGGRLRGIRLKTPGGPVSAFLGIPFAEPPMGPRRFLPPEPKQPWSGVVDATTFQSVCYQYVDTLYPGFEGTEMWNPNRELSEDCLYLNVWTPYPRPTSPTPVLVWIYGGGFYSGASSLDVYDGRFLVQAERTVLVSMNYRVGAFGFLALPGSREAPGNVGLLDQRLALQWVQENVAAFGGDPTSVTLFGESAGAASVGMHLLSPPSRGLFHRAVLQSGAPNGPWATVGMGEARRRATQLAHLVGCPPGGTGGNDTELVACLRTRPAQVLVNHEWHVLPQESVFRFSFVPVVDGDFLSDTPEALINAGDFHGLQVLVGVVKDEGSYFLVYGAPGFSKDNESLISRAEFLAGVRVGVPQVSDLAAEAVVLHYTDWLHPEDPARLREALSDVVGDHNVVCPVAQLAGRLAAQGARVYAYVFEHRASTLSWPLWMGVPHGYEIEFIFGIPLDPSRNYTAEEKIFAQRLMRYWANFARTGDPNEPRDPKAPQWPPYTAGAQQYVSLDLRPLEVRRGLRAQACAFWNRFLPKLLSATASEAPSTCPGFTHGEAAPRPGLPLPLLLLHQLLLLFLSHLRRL
Text: as §1, §2

[4] = system: caspase 8; assay: Caspase 8 activity in SH-SY5Y (multiplex activity assay kit); assay type: cell-based, human; details: 4 h treatment, LOAEL concentrations
Protocol: (§5) SH-SY5Y cells were grown in DMEM F12 (Sigma-Aldrich, St. Louis, MO, USA) supplemented with 15% (v/v) fetal bovine serum (FBS), 2 mM glutamine, and 1% (v/v) non-essential amino acids (NEAA). HepG2 cells were grown in EMEM supplemented with 10% (v/v) FBS, 2 mM glutamine, and 1% (v/v) non-essential amino acids NEAA. All media and supplements were purchased from Sigma-Aldrich, Steinheim, Germany.
Caspases (cysteine-aspartic proteases) caspase 3, caspase 8, and caspase 9 were simultaneously analyzed in cells using specific substrate and fluorogenic indicators from the Caspase-3, Caspase-8, and Caspase-9 Multiplex Activity Assay Kit (Abcam, Cambridge, UK). […] The procedure followed a previously described protocol. […] Data were evaluated from at least three independent experiments (performed in duplicate or triplicate), according to the manufacturer’s assay kit calculation protocol, and presented as a normalized signal to the untreated control.

[5] = system: SH-SY5Y cells; details: cited from earlier work
[6] = system: HepG2 cells; assay: Cytotoxicity assay (MTS) on HepG2; assay type: cell-based; details: Homo sapiens
Protocol: as §5
(§6) The procedure followed a previously described protocol.

[7] = system: SH-SY5Y cells; assay: Mitochondrial membrane potential (TMRE assay) on SH-SY5Y; assay type: cell-based, human; details: 4 h exposure, LOAEL concentrations
Protocol: as §3
(§7) Mitochondrial membrane potential (ΔΨm) was determined using a cell-permeable, potential-sensitive cationic dye, tetramethylrhodamine ethyl ester perchlorate (TMRE, Cell Signaling Technology Europe, Leiden, The Netherlands). Cells were exposed for 4 h to derivatives 3–5 and 10–12. The procedure followed a previously described protocol. A concentration of 50 µM carbonyl cyanide 3-chlorophenylhydrazone (CCCP, Cell Signaling Technology Europe, Leiden, The Netherlands) was used as a positive control. Data were evaluated from at least three independent experiments (performed in duplicate) and presented as a normalized signal to the untreated control, according to the manufacturer’s calculation protocol.

[8] = system: SH-SY5Y cells; assay: Cytotoxicity assay (MTS) on SH-SY5Y; assay type: cell-based; details: Homo sapiens
Protocol: as §5, §6

[9] = system: HepG2 cells; assay: Cell membrane integrity (LDH release) on HepG2; assay type: cell-based, human; details: HepG2, 4 h exposure, 12.5–200 µM
Protocol: as §3, §4

[10] = system: HepG2 cells; assay: Mitochondrial membrane potential (TMRE assay) on HepG2; assay type: cell-based, human; details: HepG2, 4 h exposure, LOAEL concentrations
Protocol: as §3, §7

[11] = 24 h exposure, read-out: IC50 ± SE SH-SY5Y 24 h
[12] = HepG2, read-out: IC50 ± SE HepG2 1 h, 1 h exposure
[13] = HepG2, 4 h exposure, read-out: IC50 ± SE HepG2 4 h
[14] = HepG2, 24 h exposure, read-out: IC50 ± SE HepG2 24 h
[15] = 4 h exposure, read-out: IC50 ± SE SH-SY5Y 4 h
[16] = read-out: IC50 ± SE SH-SY5Y 1 h, 1 h exposure

For CCCCCCCCCCCC[N+]12CCC(CC1)/C(=N\O)C2 [Compound 10], the Ki [1] was 5.4 ± 0.8 µM, the LDH release [2] was “strongest effect; also recorded: significant LDH release” and the Ki [3] was 14.3 ± 1.8 µM. The “Ki (AChE)/Ki (BChE)” value [3] was 2.6, the “Caspase 8 activation” value [4] was “significant activation” and the IC50 [5, 11] was 147 ± 1 µM. The IC50 [6, 12] was 218 ± 1 µM, the IC50 [6, 13] was 81 ± 1 µM and the IC50 [6, 14] was 15 ± 1 µM. For the same compound, the “Mitochondrial membrane potential (ΔΨm)” value [7] was “decrease in the mitochondrial membrane potential”, the IC50 [8, 15] was 174 ± 1 µM and the IC50 [8, 16] was 208 ± 3 µM. The LDH release [9] was “significant LDH release” and the “Mitochondrial membrane potential (ΔΨm)” value [10] was “decrease in the mitochondrial membrane potential”.

With CCCCCCCCCCCCCC[N+]12CCC(CC1)/C(=N\O)C2 [Compound 11] the Ki [1] was 8.8 ± 1 µM, the LDH release [2] was “strongest effect; also recorded: significant LDH release” and the Ki [3] was 7 ± 0.9 µM. The “Ki (AChE)/Ki (BChE)” value [3] was 0.8, the “Caspase 8 activation” value [4] was “significant activation” and the IC50 [6, 12] was 37 ± 1 µM. For the same compound, the IC50 [6, 13] was 18 ± 1 µM, the IC50 [6, 14] was 11 ± 1 µM and the “Mitochondrial membrane potential (ΔΨm)” value [7] was “decrease in the mitochondrial membrane potential”. For the same compound, the IC50 [8, 15] was 83 ± 3 µM, the IC50 [8, 11] was 60 ± 1 µM and the IC50 [8, 16] was 125 ± 2 µM. The LDH release [9] was “significant LDH release” and the “Mitochondrial membrane potential (ΔΨm)” value [10] was “decrease in the mitochondrial membrane potential”.

For CCCCCCCCCCCCCCCC[N+]12CCC(CC1)/C(=N\O)C2 [Compound 12], the Ki [1] was 48.6 ± 3.8 µM, the LDH release [2] was “strongest effect; also recorded: significant LDH release” and the Ki [3] was 19 ± 1.6 µM. For the same compound, the “Ki (AChE)/Ki (BChE)” value [3] was 0.4, the “Caspase 8 activation” value [4] was “significant activation” and the IC50 [6, 12] was 40 ± 1 µM. The IC50 [6, 13] was 20 ± 1 µM, the IC50 [6, 14] was 7 ± 1 µM and the “Mitochondrial membrane potential (ΔΨm)” value [7] was “decrease in the mitochondrial membrane potential”. For the same compound, the IC50 [8, 15] was 78 ± 1 µM, the IC50 [8, 11] was 54 ± 1 µM and the IC50 [8, 16] was 89 ± 1 µM. The LDH release [9] was “significant LDH release” and the “Mitochondrial membrane potential (ΔΨm)” value [10] was “decrease in the mitochondrial membrane potential”.

For CN[C@@H]1C[C@H]2O[C@@](C)([C@@H]1OC)n1c3ccccc3c3c4c(c5c6ccccc6n2c5c31)C(=O)NC4 [SS, staurosporine], the IC50 ([5]; 24 h exposure, controls, read-out: IC50 ± SE SH-SY5Y 24 h) is given as 0.12 ± 0.01 µM and the IC50 ([5]; read-out: IC50 ± SE SH-SY5Y 1 h, 1 h exposure, controls) is given as ≥ 4 µM.

— paper PMC10778980, “Profiling Novel Quinuclidine-Based Derivatives as Potential Anticholinesterase Drugs: Enzyme Inhibition and Effects on Cell Viability” (International Journal of Molecular Sciences, 2023)
